# In US12052991B2, “Substituted pyridinyloxybenzenes and salts thereof and use thereof as herbicidal agents” (Bayer Aktiengesellschaft, priority 2018, dated 2024):
# Tests used:
# Format in all cases: in vivo
# [1] = tested on: Amaranthus retroflexus (AMARE); assay: Herbicidal post-emergence action (Table B6); conditions: visual rating about 3 weeks after treatment, 100% = plants have died, 0% = like control plants
# Method: (§1) Seeds of mono- and dicotyledonous weed plants were placed in plastic pots in sandy loam soil (doubly sown with in each case one species of mono- or dicotyledonous weed plants per pot), covered with soil and cultivated in a greenhouse under controlled growth conditions. 2 to 3 weeks after sowing, the test plants were treated at the one-leaf stage. The compounds of the invention, formulated in the form of wettable powders (WP) or as emulsion concentrates (EC), were applied onto the green parts of the plants as aqueous suspension or emulsion with addition of 0.5% additive at a water application rate of 600 liters per hectare (converted). After the test plants had been kept in the greenhouse under optimum growth conditions for about 3 weeks, the activity of the preparations was rated visually in comparison to untreated controls. For example, 100% activity=the plants have died, 0% activity=like control plants. Tables B1 to B12 below show the effects of selected compounds of the general formula (I) according to Table 1 on various harmful plants and an application rate corresponding to 1280 or 320 g/ha, which were obtained by the experimental procedure mentioned above.
# Poa annua (POAAN) [2] = assay: Herbicidal post-emergence action (Table B3); conditions: rated visually after about 3 weeks, 100% = plants have died, 0% = like control plants
# Method: as §1
# Poa annua (POAAN) [3] = assay: Herbicidal pre-emergence action, test C (Table C3); conditions: visual scoring after about 3 weeks, 100% = plants have died, 0% = like control plants
# From the text: (§2) Seeds of mono- and dicotyledonous weed plants were placed in plastic pots in sandy loam soil (doubly sown with one species each of mono- or dicotyledonous weed plants per pot) and covered with soil. The compounds of the invention, formulated in the form of wettable powders (WP) or as emulsion concentrates (EC), were then applied onto the surface of the covering soil as aqueous suspension or emulsion with addition of 0.5% additive at a water application rate of 600 liters per hectare (converted). After the treatment, the pots were placed in a greenhouse and kept under good growth conditions for the test plants. After about 3 weeks, the effect of the preparations was scored visually in comparison with untreated controls as percentages. For example, 100% activity=the plants have died, 0% activity=like control plants. Tables C1 to C12 below show the effects of selected compounds of the general formula (I) according to Table 1 on various harmful plants and an application rate corresponding to 1280 or 320 g/ha, which were obtained by the experimental procedure mentioned above.
# Stellaria media (STEME) [4] = assay: Herbicidal pre-emergence action, test C (Table C8); conditions: visual scoring after about 3 weeks, 100% = plants have died, 0% = like control plants
# From the text: as §2
# [5] = tested on: harmful plants ABUTH, AMARE, ECHCG, LOLRI, MATIN, POAAN, SETVI, STEME, ALOMY, DIGSA, KCHSC and VERPE; assay: Herbicidal post-emergence action, summary of Tables B1-B12; conditions: application rate of 1280 or 320 g of active ingredient per hectare; summary in words
# Method: as §1, with “controls.” for “controls. For example, 100% activity=the plants have died, 0% activity=like control plants. Tables B1 to B12 below show the effects of selected compounds of the general formula (I) according to Table 1 on various harmful plants and an application rate corresponding to 1280 or 320 g/ha, which were obtained by the experimental procedure mentioned above.”
# (§3) For example, 100% activity=the plants have died, 0% activity=like control plants.
# Tables B1 to B12 below show the effects of selected compounds of the general formula (I) according to Table 1 on various harmful plants and an application rate corresponding to 1280 or 320 g/ha, which were obtained by the experimental procedure mentioned above.
# As the results of Tables B1-B12 show, compounds no.
# [6] = tested on: harmful plants ABUTH, AMARE, ECHCG, LOLRI, MATIN, POAAN, SETVI, STEME, ALOMY, DIGSA, KCHSC and VERPE; assay: Herbicidal pre-emergence action (test C), summary of Tables C1-C12; conditions: application rate of 1280 or 320 g of active ingredient per hectare; summary in words
# From the text: as §2, with “percentages.” for “percentages. For example, 100% activity=the plants have died, 0% activity=like control plants. Tables C1 to C12 below show the effects of selected compounds of the general formula (I) according to Table 1 on various harmful plants and an application rate corresponding to 1280 or 320 g/ha, which were obtained by the experimental procedure mentioned above.”
# as §3
# Tables C1 to C12 below show the effects of selected compounds of the general formula (I) according to Table 1 on various harmful plants and an application rate corresponding to 1280 or 320 g/ha, which were obtained by the experimental procedure mentioned above.
# As the results of Tables C1-C12 show, compounds no.
# [7] = tested on: Alopecurus myosuroides (ALOMY); assay: Herbicidal pre-emergence action, test C (Table C9); conditions: dosage 1280 g/ha; visual scoring after about 3 weeks; 100% = plants have died, 0% = like control plants
# From the text: as §2
# Veronica persica (VERPE) [8] = assay: Herbicidal post-emergence action (Table B12); conditions: visual rating about 3 weeks after treatment, 100% = plants have died, 0% = like control plants
# Method: as §1
# [9] = tested on: Amaranthus retroflexus (AMARE); assay: Herbicidal pre-emergence action, test C (Table C6); conditions: visual scoring after about 3 weeks, 100% = plants have died, 0% = like control plants
# From the text: as §2
# [10] = tested on: Digitaria sanguinalis (DIGSA); assay: Herbicidal pre-emergence action, test C (Table C10); conditions: dosage 1280 g/ha; visual scoring after about 3 weeks; 100% = plants have died, 0% = like control plants
# From the text: as §2
# Setaria viridis (SETVI) = assay: Herbicidal pre-emergence action, test C (Table C4); conditions: dosage 1280 g/ha; visual scoring after about 3 weeks; 100% = plants have died, 0% = like control plants
# From the text: as §2
# Stellaria media (STEME) [11] = assay: Herbicidal post-emergence action (Table B8); conditions: visual rating about 3 weeks after treatment, 100% = plants have died, 0% = like control plants
# Method: as §1
# Veronica persica (VERPE) [12] = assay: Herbicidal pre-emergence action, test C (Table C12); conditions: visual scoring vs untreated controls
# From the text: as §2
# [13] = tested on: Digitaria sanguinalis (DIGSA); assay: Herbicidal post-emergence action (Table B10); conditions: dosage 1280 g/ha; visual rating about 3 weeks after treatment; 100% = plants have died, 0% = like control plants
# Method: as §1
# [14] = tested on: Abutilon theophrasti (ABUTH); assay: Herbicidal post-emergence action (Table B5); conditions: rated visually after about 3 weeks, 100% = plants have died, 0% = like control plants
# Method: as §1
# [15] = tested on: Abutilon theophrasti (ABUTH); assay: Herbicidal pre-emergence action, test C (Table C5); conditions: visual scoring after about 3 weeks, 100% = plants have died, 0% = like control plants
# From the text: as §2
# [16] = tested on: Matricaria inodora (MATIN); assay: Herbicidal pre-emergence action, test C (Table C7); conditions: dosage 1280 g/ha; visual scoring after about 3 weeks; 100% = plants have died, 0% = like control plants
# From the text: as §2
# Bassia scoparia (KCHSC) = assay: Herbicidal post-emergence action (Table B11); conditions: visual rating about 3 weeks after treatment, 100% = plants have died, 0% = like control plants
# Method: as §1
# [17] = tested on: Echinochloa crus-galli (ECHCG); assay: Herbicidal post-emergence action (Table B1); conditions: rated visually after about 3 weeks, 100% = plants have died, 0% = like control plants
# Method: as §1
# [18] = tested on: Alopecurus myosuroides (ALOMY); assay: Herbicidal post-emergence action (Table B9); conditions: rated visually after about 3 weeks, 100% = plants have died, 0% = like control plants
# Method: as §1
Structure (SMILES),Post-emergence action against Amaranthus retroflexus (AMARE) ([1]; dosage 1280 g/ha) [%],Post-emergence action against Poa annua (POAAN) (Poa annua (POAAN) [2]; 320 g/ha) [%],Post-emergence action against Poa annua (POAAN) (Poa annua (POAAN) [2]; 1280 g/ha) [%],Pre-emergence action against Poa annua (POAAN) (Poa annua (POAAN) [3]; dosage 1280 g/ha) [%],Pre-emergence action against Stellaria media (STEME) (Stellaria media (STEME) [4]; dosage 320 g/ha) [%],Pre-emergence action against Stellaria media (STEME) (Stellaria media (STEME) [4]; dosage 1280 g/ha) [%],herbicidal activity against the harmful plants of Tables B1-B12 in post-emergence treatment [5],herbicidal activity against the harmful plants of Tables C1-C12 in pre-emergence treatment [6],Pre-emergence action against Alopecurus myosuroides (ALOMY) [7] [%],Post-emergence action against Veronica persica (VERPE) (Veronica persica (VERPE) [8]; dosage 320 g/ha) [%],Post-emergence action against Veronica persica (VERPE) (Veronica persica (VERPE) [8]; dosage 1280 g/ha) [%],Pre-emergence action against Amaranthus retroflexus (AMARE) ([9]; dosage 1280 g/ha) [%],Pre-emergence action against Digitaria sanguinalis (DIGSA) [10] [%],Pre-emergence action against Setaria viridis (SETVI) (Setaria viridis (SETVI)) [%],Post-emergence action against Stellaria media (STEME) (Stellaria media (STEME) [11]; dosage 320 g/ha) [%],Post-emergence action against Stellaria media (STEME) (Stellaria media (STEME) [11]; dosage 1280 g/ha) [%],Pre-emergence action against Veronica persica (VERPE) (Veronica persica (VERPE) [12]; dosage 1280 g/ha) [%],Post-emergence action against Digitaria sanguinalis (DIGSA) [13] [%],Post-emergence action against Abutilon theophrasti (ABUTH) ([14]; 1280 g/ha) [%],Pre-emergence action against Matricaria inodora (MATIN) [16] [%],further results
FC(F)c1cc(-c2c(Oc3ccc(Cl)cn3)cccc2C2CC2)on1 [Example 1-77],100,100,100,100,100,100,very good herbicidal activity,very good herbicidal activity,100,100,100,100,100,100,100,100,100,100,90,–,Pre-emergence action against Amaranthus retroflexus (AMARE) ([9]; dosage 320 g/ha): 90%; Pre-emergence action against Veronica persica (VERPE) (Veronica persica (VERPE) [12]; dosage 320 g/ha): 90%
Cc1ccnc(-c2ccccc2Oc2ccc(Cl)cn2)c1 [Example 1-81],100,–,90,100,–,100,very good herbicidal activity,very good herbicidal activity,90,100,100,100,100,–,–,100,100,–,90,90,Pre-emergence action against Abutilon theophrasti (ABUTH) ([15]; dosage 320 g/ha): 100%; Pre-emergence action against Abutilon theophrasti (ABUTH) ([15]; dosage 1280 g/ha): 100%
Cc1ccc(-c2cc(C(F)F)no2)c(Oc2ccc(Cl)cn2)c1 [Example 1-26],100,100,100,100,100,100,very good herbicidal activity,very good herbicidal activity,90,–,100,–,90,90,–,100,90,90,100,100,Pre-emergence action against Poa annua (POAAN) (Poa annua (POAAN) [3]; dosage 320 g/ha): 90%; Pre-emergence action against Abutilon theophrasti (ABUTH) ([15]; dosage 1280 g/ha): 90%; Post-emergence action against Bassia scoparia (KCHSC) (Bassia scoparia (KCHSC); dosage 320 g/ha): 90%; Post-emergence action against Bassia scoparia (KCHSC) (Bassia scoparia (KCHSC); dosage 1280 g/ha): 100%; Post-emergence action against Echinochloa crus-galli (ECHCG) ([17]; 320 g/ha): 100%; Post-emergence action against Echinochloa crus-galli (ECHCG) ([17]; 1280 g/ha): 100%; Post-emergence action against Alopecurus myosuroides (ALOMY) ([18]; 320 g/ha): 100%; Post-emergence action against Alopecurus myosuroides (ALOMY) ([18]; 1280 g/ha): 100%; Post-emergence action against Abutilon theophrasti (ABUTH) ([14]; 320 g/ha): 90%
CCc1ccc(Oc2cccc(CC)c2-c2cc(C(F)F)no2)nc1 [Example 1-60],100,90,100,100,100,100,very good herbicidal activity,very good herbicidal activity,–,100,100,100,100,100,100,100,100,100,90,100,Post-emergence action against Amaranthus retroflexus (AMARE) ([1]; dosage 320 g/ha): 100%; Post-emergence action against Bassia scoparia (KCHSC) (Bassia scoparia (KCHSC); dosage 1280 g/ha): 100%; Post-emergence action against Alopecurus myosuroides (ALOMY) ([18]; 320 g/ha): 100%; Post-emergence action against Alopecurus myosuroides (ALOMY) ([18]; 1280 g/ha): 100%
